The text below walks through data of PubChem BioAssay (NCI).

Among the test systems are A498 renal; ACHN renal; HOP-62 NSCLC; HOP-92 NSCLC; IGROV1 ovarian; K-562 leukemia; KM12 colon; M14 melanoma; MCF7 breast; NCI-H23 lung; NCI/ADR-RES ovarian; OVCAR-5 ovarian; PC-3 prostate; RPMI-8226 leukemia; SK-OV-3 ovarian; U251 CNS.
Common to all, as to test: inhibition of tumour cell growth, NCI panel, 48 h

SMILES strings stand for the structures.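 1) Cells in 96-well plates. 2) Compound, 48 h, 5 concentrations. 3) Linear interpolation between surrounding doses. 4) Unreached endpoint = highest concentration. Definition used: TGI = concentration required for complete inhibition of growth.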

Regarding `CC1CCC2C(C(=O)O[C@H]3C4C=CO[C@@H](OC5OC(CO)C(O)C(O)C5O)C4[C@@]4(CO)O[C@@H]34)=CO[C@@H](OC3OC(CO)C(O)C(O)C3O)C12` (stereo not given in full), the TGI with A498 renal, in the test on ACHN renal, with HOP-62 NSCLC, in the test on HOP-92 NSCLC, in the test on IGROV1 ovarian and in the test on K-562 leukemia was above 10 µM in each case. Besides, the TGI in the test on KM12 colon, with M14 melanoma, with MCF7 breast, with NCI-H23 lung, in the test with NCI/ADR-RES ovarian and in the test with OVCAR-5 ovarian was above 10 µM each time. The TGI with PC-3 prostate, with RPMI-8226 leukemia, in the test with SK-OV-3 ovarian and in the test on U251 CNS was above 10 µM throughout.
Take `CC1=NN(c2ccccc2Cl)C2(C1)C(Cl)C(=O)N2c1nc2ccccc2s1` (stereo not given): the TGI in the test with A498 renal, in the test on ACHN renal, in the test with HOP-62 NSCLC, with HOP-92 NSCLC, with IGROV1 ovarian and in the test with K-562 leukemia was above 100 µM throughout. Moreover, the TGI with KM12 colon, in the test with M14 melanoma, in the test with MCF7 breast, in the test on NCI-H23 lung, with NCI/ADR-RES ovarian and with OVCAR-5 ovarian was above 100 µM throughout. In addition, the TGI in the test on PC-3 prostate was above 100 µM; in the test with RPMI-8226 leukemia, 58.6 µM; with SK-OV-3 ovarian it was above 100 µM; in the test with U251 CNS, 76.5 µM.
`COC(=O)C1=CCC[C@H]2[C@@]1(COC(C)=O)CC[C@@H](C)[C@]2(C)CC(=O)c1ccoc1`: the TGI is above 50 µM with A498 renal; above 50 µM in the test with ACHN renal; 37.8 µM in the test with HOP-92 NSCLC; above 50 µM in the test with IGROV1 ovarian; above 50 µM with KM12 colon; above 50 µM with M14 melanoma. Also, the TGI was above 50 µM with MCF7 breast; 47.2 µM in the test on NCI-H23 lung; above 50 µM with NCI/ADR-RES ovarian; above 50 µM in the test with OVCAR-5 ovarian; above 50 µM with PC-3 prostate; 29.6 µM in the test with RPMI-8226 leukemia. Also, the TGI in the test with SK-OV-3 ovarian and in the test on U251 CNS was above 50 µM each time.
Take `Fc1nc(-c2c3ccccc3c3sc4ccccc4n23)nc(N2CCOCCOCCOCCOCC2)n1`: the TGI in the test on A498 renal is above 100 µM; in the test with ACHN renal, above 100 µM; in the test on HOP-62 NSCLC, above 100 µM; in the test on HOP-92 NSCLC, 93 µM; in the test on IGROV1 ovarian it was above 100 µM; with K-562 leukemia, above 100 µM. Further, the TGI with KM12 colon, in the test on M14 melanoma, in the test on MCF7 breast, in the test with NCI-H23 lung, in the test with NCI/ADR-RES ovarian and in the test with OVCAR-5 ovarian was above 100 µM throughout. Also, the TGI in the test on PC-3 prostate, in the test on RPMI-8226 leukemia, in the test with SK-OV-3 ovarian and in the test on U251 CNS was above 100 µM throughout.
With `CN(C)Cc1cc(C(=O)/C=C/c2ccc(Cl)cc2Cl)cc(CN(C)C)c1O`, the TGI in the test on A498 renal was 8.49 µM; with ACHN renal, 10.9 µM; in the test on HOP-62 NSCLC, 12.9 µM; with HOP-92 NSCLC it was 8.55 µM; in the test with IGROV1 ovarian, 10.4 µM; with K-562 leukemia, 5.29 µM. Besides, the TGI was 4.51 µM in the test on KM12 colon; 13.3 µM in the test with M14 melanoma; 15.3 µM with MCF7 breast; 22.6 µM with NCI-H23 lung; 5.7 µM in the test with NCI/ADR-RES ovarian; 28.7 µM in the test with OVCAR-5 ovarian. Also, the TGI with PC-3 prostate was 6.19 µM; with RPMI-8226 leukemia it was above 100 µM; in the test on U251 CNS, 15.7 µM.
Regarding `CC(C)(C)C1CC[C@H](O)[C@H]([C@@H](O)CC2CC(=O)N(c3ccccc3)C(=O)C2)C1` (stereo not given in full), the TGI in the test on A498 renal, in the test with ACHN renal, in the test on HOP-62 NSCLC, in the test with HOP-92 NSCLC, in the test with IGROV1 ovarian and in the test on K-562 leukemia was above 100 µM each time. For the same compound, the TGI in the test with KM12 colon, with M14 melanoma, in the test with MCF7 breast, with NCI-H23 lung, in the test on NCI/ADR-RES ovarian and with OVCAR-5 ovarian was above 100 µM each time. For the same compound, the TGI in the test with PC-3 prostate, in the test on RPMI-8226 leukemia and with U251 CNS was above 100 µM each time.
For `COc1ccc(C)cc1NC(=S)N/N=C/c1ccco1`, the TGI in the test with A498 renal, with ACHN renal, with HOP-62 NSCLC, with HOP-92 NSCLC, in the test on IGROV1 ovarian and in the test on K-562 leukemia was above 100 µM each time. The TGI in the test on KM12 colon, with M14 melanoma, with MCF7 breast, in the test on NCI-H23 lung, in the test with NCI/ADR-RES ovarian and with OVCAR-5 ovarian was above 100 µM throughout. In addition, the TGI is above 100 µM in the test on PC-3 prostate, 71.8 µM in the test on RPMI-8226 leukemia and above 100 µM in the test on SK-OV-3 ovarian.
Regarding `O=C(c1ccsc1)c1nccc2c1cnc1ccccc12`, the TGI in the test on A498 renal is above 100 µM; in the test on ACHN renal, above 100 µM; in the test with HOP-62 NSCLC, above 100 µM; in the test with HOP-92 NSCLC, above 100 µM; in the test on IGROV1 ovarian, 17.1 µM; with KM12 colon, above 100 µM. The TGI in the test on M14 melanoma, with MCF7 breast, in the test with NCI-H23 lung, with NCI/ADR-RES ovarian, with OVCAR-5 ovarian and in the test with PC-3 prostate was above 100 µM throughout. Moreover, the TGI in the test on RPMI-8226 leukemia, with SK-OV-3 ovarian and in the test with U251 CNS was above 100 µM each time.
On to `CCCCCCCCCCCC(=O)OCC(O)CO` (stereo not given), for which the TGI with A498 renal was above 100 µM; with ACHN renal, above 100 µM; in the test on HOP-62 NSCLC, above 100 µM; in the test on HOP-92 NSCLC, above 100 µM; in the test on KM12 colon, 75.6 µM; in the test on M14 melanoma, above 100 µM. Moreover, the TGI in the test with MCF7 breast, in the test with NCI-H23 lung, in the test on NCI/ADR-RES ovarian, in the test with OVCAR-5 ovarian, in the test on PC-3 prostate and with SK-OV-3 ovarian was above 100 µM each time. For the same compound, in the test on U251 CNS, the TGI is above 100 µM.
